In patent US20120190666A1, “Heteroaryl Compounds as PIKK Inhibitors” (Amgen Inc., priority 2009, published 2012) one finds IC50 data, which are given here for 28 compounds.

A word on the IC50: it is the concentration that inhibits the measured activity by half.

One test addresses mTOR (Homo sapiens, UniProt P42345). Nature of the test: mTOR LanthaScreen (TR-FRET, phosphorylation of 4EBP1). The class given is biochemical. To be noted: phosphorylation of GFP-4E-BP1, 10 μM ATP, 90 minutes. The method, then:
The mTOR LanthaScreen is a TR-FRET assay measuring the phosphorylation of mTOR's substrate 4EBP1. 384 well compound plates were prepared containing 1 μl of compound per well starting at 5 mM and diluted 1:2 across the row, resulting in a 22 well serial dilution. 24 μl of assay buffer (Invitrogen, PV4794) with 2 mM DTT was added to the compound plate in rows 1-24 using the VELOCITY 11™ VPREP™ 384 ST resulting in a DMSO concentration of 4%. The compound plate was mixed and 2.5 μl of serially diluted compound or controls was added to the assay plate (Costar, 3658).
The assay was conducted on the PerkinElmer® FlexDrop PLUS. A 5 μl mix of 800 nM GFP-4E-BP1 (Invitrogen, PV4759) and 20 μM ATP (Amgen) was added to rows 1-24. 2.5 μl of 0.6 μg/ml of mTOR Enzyme (Amgen) was added to rows 1-23. 2.5 μl of assay buffer was added to row 24 for the low control. The final concentration of the compounds was 50 μM serially diluted to 23.84 pM in 1% DMSO. […] The final concentrations in the assay reagents were 400 nM GFP-4E-BP1, 10 μM of ATP and 0.15 μg/ml of mTOR enzyme. The compound, enzyme, and substrate were incubated for 90 minutes. At this point, 10 μl of stop solution was added (20 mM Tris, pH 7.5 (Invitrogen, 15567-027), 0.02% Sodium Azide (Teknova, S0208), 0.01% NP-40 (Roche, 11754599001), 20 mM EDTA (Invitrogen, 15575-038) and 4 nM of Tb-anti-p4E-BP1 (Invitrogen, PV4758)) for a final concentration of 2 nM of Tb-anti-p4E-BP1.
Sixty minutes later the plates were read on the PerkinElmer® EnVision™ 2103 Multilable Reader using the Excitation filter 340 nm and the Emission filters 520 nm and 495 nm.
For orientation: TR-FRET usually uses a lanthanide donor and a delayed reading to cut background.

The subject of test [1] is phosphorylation of Akt at Serine 473 in U87 MG cells. Nature of the test: pAkt AlphaScreen (U87 cell). The class given is cell-based. The conditions noted are these: Homo sapiens, U-87 MG, 2 h; pAkt at Serine 473, U87 MG cells, two hours with compound. The gist of the method: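 U87 MG cells (5K per well, plated overnight) treated 2 h at 37 °C with compound, 25 μM to 11.9 pM final in 0.5% DMSO. Lysates assayed for Akt Ser473 phosphorylation with SureFire AlphaScreen, incubated overnight at room temperature; IC50 from percent of control.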
(In general: Alpha assays give light when donor and acceptor beads are brought close together.)

For the compound `COc1ccc(-c2ccc3nc(Nc4ccn[nH]4)c(-c4nc(C)nc(N)n4)n3c2)cc1CO` [Cpd 286], the results for the IC50 (on mTOR; in test [1]) were 120 nM and 10 nM, respectively.

In the case of `COCCOc1cnnc(Nc2cc(-c3c(Nc4ccc(NC(C)=O)cc4)nc4cccnn34)nc(C)n2)c1` [Cpd 53, N-(4-((3-(6-((5-(2-methoxyethoxy)-3-pyridazinyl)amino)-2-methyl-4-pyrimidinyl)imidazo[1,2-b]pyridazin-2-yl)amino)phenyl)acetamide], the IC50 turned out to be 1 nM against mTOR and 10 nM in test [1].

In the case of `Cc1nc(NC(=O)N2CCN(C)CC2)cc(-c2c(Nc3cc[nH]n3)nc3cccnn23)n1` [Cpd 77, 4-methyl-N-(2-methyl-6-(2-(1H-pyrazol-3-ylamino)imidazo[1,2-b]pyridazin-3-yl)-4-pyrimidinyl)-1-piperazinecarboxamide], the IC50 at mTOR was found to be 2720 nM; in test [1] it was 1640 nM.

In the case of `Cc1nc(N)cc(-c2c(Nc3ccn(C(=O)Nc4ccccc4C(F)(F)F)n3)nc3cccnn23)n1` [Cpd 239, 3-((3-(6-amino-2-methyl-4-pyrimidinyl)imidazo[1,2-b]pyridazin-2-yl)amino)-N-(2-(trifluoromethyl)phenyl)-1H-pyrazole-1-carboxamide], the values for the IC50 (against mTOR; in test [1]) were 8 nM and 10 nM, respectively.

For `Cc1nc(N)cc(-c2c(Nc3cc[nH]n3)nc3ccc(OCCN4CCCC4)nn23)n1` [Cpd 73], the IC50 at mTOR stood at 50 nM; in test [1] it was 70 nM.

For `Cc1nc(N)cc(-c2c(Nc3ccn(-c4ccccn4)n3)nc3ccccn23)n1` [Cpd 216, 3-(6-amino-2-methyl-4-pyrimidinyl)-N-(1-(2-pyridinyl)-1H-pyrazol-3-yl)imidazo[1,2-a]pyridin-2-amine], the values for the IC50 (against mTOR; in test [1]) were 860 nM and 450 nM, respectively.

For `Cc1nc(N)cc(-c2c(Nc3ccnn3C(=O)N3CCC3)nc3cccnn23)n1` [Cpd 257, 3-(6-amino-2-methyl-4-pyrimidinyl)-N-(1-(1-azetidinylcarbonyl)-1H-pyrazol-5-yl)imidazo[1,2-b]pyridazin-2-amine], the IC50 is 1690 nM against mTOR and 1050 nM in test [1].

`Cc1nc(N)nc(-c2c(Nc3cc[nH]n3)nc3ccc(C4=CCN(C(=O)OC(C)(C)C)CC4)cn23)n1` [Cpd 97, tert-butyl 4-(3-(4-amino-6-methyl-1,3,5-triazin-2-yl)-2-(1H-pyrazol-3-ylamino)imidazo[1,2-a]pyridin-6-yl)-3,6-dihydro-1(2H)-pyridinecarboxylate]: the IC50 against mTOR is 16 nM; in test [1], 30 nM.

For the compound `Cc1nc(N)nc(-c2c(Nc3ccn(C)n3)nc3ccc(-c4ccc(S(C)(=O)=O)cc4)cn23)n1` [Cpd 354], the IC50 amounted to 320 nM against mTOR and 100 nM in test [1].

Regarding `Cc1nc(N)nc(-c2c(Nc3cc[nH]n3)nc3ccc(-c4ccoc4)cn23)n1` [Cpd 105, 3-(4-amino-6-methyl-1,3,5-triazin-2-yl)-6-(3-furanyl)-N-1H-pyrazol-3-ylimidazo[1,2-a]pyridin-2-amine], the IC50 is 14 nM against mTOR and 50 nM in test [1].

With `Cc1nc(NC(=O)CC#N)cc(-c2c(Nc3ccn(C)n3)nc3ccccn23)n1` [Cpd 126, 2-cyano-N-(2-methyl-6-(2-((1-methyl-1H-pyrazol-3-yl)amino)imidazo[1,2-a]pyridin-3-yl)-4-pyrimidinyl)acetamide], the IC50 amounted to 690 nM at mTOR and 220 nM in test [1].

On to `COCCOc1ccc2nc(Nc3cc[nH]n3)c(-c3cc(N)nc(C)n3)n2n1` [Cpd 69, 3-(6-amino-2-methyl-4-pyrimidinyl)-6-(2-methoxyethoxy)-N-1H-pyrazol-3-ylimidazo[1,2-b]pyridazin-2-amine], for which the figures for the IC50 (on mTOR; in test [1]) were 4 nM and 1 nM, respectively.

`Cc1nc(N)nc(-c2c(Nc3cc[nH]n3)nc3ccc(-c4cccc(NC(=O)C5CC5)c4)cn23)n1` [Cpd 115, N-(3-(3-(4-amino-6-methyl-1,3,5-triazin-2-yl)-2-(1H-pyrazol-3-ylamino)imidazo[1,2-a]pyridin-6-yl)phenyl)cyclopropanecarboxamide]: the IC50 on mTOR is 3 nM; in test [1], 40 nM.

With `Cc1nc(-c2c(Nc3cccc(O)c3)nc3ccccn23)c2nc[nH]c2n1` [Cpd 2], the IC50 against mTOR was 24 nM; in test [1] it was 50 nM.

As to `COc1ccc(Nc2cc(C)nn2-c2cc(N)nc(C)n2)cn1` [Cpd 24, 6-(5-(6-methoxypyridin-3-ylamino)-3-methyl-1H-pyrazol-1-yl)-2-methylpyrimidin-4-amine], the IC50 was > 50000 nM against mTOR and 870 nM in test [1].

For the compound `Cc1nc(N)cc(-n2nc(C(=O)N3CCOCC3)cc2Nc2ccn[nH]2)n1` [Cpd 13, (5-(1H-pyrazol-5-ylamino)-1-(6-amino-2-methylpyrimidin-4-yl)-1H-pyrazol-3-yl)(morpholino)methanone], the concentration for half-maximal inhibition (IC50) on mTOR stood at 100 nM; in test [1] it was 280 nM.

Take `Cc1nc(N)nc(-c2c(Nc3cc[nH]n3)nc3ccc(Nc4ccncc4)cn23)n1` [Cpd 166]: the IC50 against mTOR is 25 nM; in test [1], 450 nM.

Take `Cc1nc(N)cc(-c2c(Nc3ccn(C(=O)Nc4cc(F)cc(F)c4)n3)nc3cccnn23)n1` [Cpd 242, 3-((3-(6-amino-2-methyl-4-pyrimidinyl)imidazo[1,2-b]pyridazin-2-yl)amino)-N-(3,5-difluorophenyl)-1H-pyrazole-1-carboxamide]: the IC50 (against mTOR; in test [1]) was 80 nM each time.

Consider `CC(=O)NCc1ccc(-c2ccc3nc(Nc4cc[nH]n4)c(-c4nc(C)nc(N)n4)n3c2)cc1` [Cpd 100, N-(4-(3-(4-amino-6-methyl-1,3,5-triazin-2-yl)-2-(1H-pyrazol-3-ylamino)imidazo[1,2-a]pyridin-6-yl)benzyl)acetamide], for which the IC50 against mTOR was 1 nM; in test [1], 10 nM.

On to `Cc1nc(NC(=O)C2CC2)cc(-c2c(Nc3cc[nH]n3)nc3cccnn23)n1` [Cpd 120], for which the IC50 at mTOR came out at 290 nM; in test [1] it was 110 nM.

On to `Cc1nc(N)cc(-n2nc(C(=O)NC3CC3)cc2Nc2cc[nH]n2)n1` [Cpd 16, 5-(1H-pyrazol-5-ylamino)-1-(6-amino-2-methylpyrimidin-4-yl)-N-cyclopropyl-1H-pyrazole-3-carboxamide], for which the IC50 is 380 nM at mTOR and 350 nM in test [1].

As for `Cc1nc(NC(=O)CN(C)C)cc(-c2c(Nc3ccn(C)n3)nc3cccnn23)n1` [Cpd 92], the IC50 worked out at 780 nM against mTOR and 180 nM in test [1].

For `Cc1nc(N)nc(-c2c(Nc3cc[nH]n3)nc3ccc(-c4ccc(F)cc4C)cn23)n1` [Cpd 107, 3-(4-amino-6-methyl-1,3,5-triazin-2-yl)-6-(4-fluoro-2-methylphenyl)-N-1H-pyrazol-3-ylimidazo[1,2-a]pyridin-2-amine], the IC50 at mTOR was 40 nM; in test [1], 130 nM.

On to `CNc1cc(-c2c(Nc3cc[nH]n3)nc3ccc(N4CCOCC4)nn23)nc(C)n1` [Cpd 72, 3-(2-methyl-6-(methylamino)-4-pyrimidinyl)-6-(4-morpholinyl)-N-1H-pyrazol-3-ylimidazo[1,2-b]pyridazin-2-amine], for which the values for the IC50 (against mTOR; in test [1]) were 40 nM and 3 nM, respectively.

For `Cc1nc(Nc2ccc(N3CCOCC3)nn2)cc(-c2c(Nc3cc[nH]n3)nc3ccccn23)n1` [Cpd 49, 3-(2-methyl-6-((6-(4-morpholinyl)-3-pyridazinyl)amino)-4-pyrimidinyl)-N-1H-pyrazol-3-ylimidazo[1,2-a]pyridin-2-amine], the IC50 stood at 80 nM at mTOR and 60 nM in test [1].

On to `Cc1nc(N)cc(-n2nc(C(=O)Nc3cccnc3)cc2Nc2ccn[nH]2)n1` [Cpd 11, 5-(1H-pyrazol-5-ylamino)-1-(6-amino-2-methylpyrimidin-4-yl)-N-(pyridin-3-yl)-1H-pyrazole-3-carboxamide], for which the IC50 against mTOR was determined as 820 nM; in test [1] it was 600 nM.

Regarding `Cc1nc(Nc2ccc(N3CCN(C)CC3)nn2)cc(-c2c(Nc3cc[nH]n3)nc3cccnn23)n1` [Cpd 35, 3-(2-methyl-6-((6-(4-methyl-1-piperazinyl)-3-pyridazinyl)amino)-4-pyrimidinyl)-N-1H-pyrazol-3-ylimidazo[1,2-b]pyridazin-2-amine], the IC50 against mTOR was determined as 10 nM; in test [1], 70 nM.

Turning to `COCC(=O)Nc1cc(-c2c(Nc3ccn(C)n3)nc3cccnn23)nc(C)n1` [Cpd 123, 2-methoxy-N-(2-methyl-6-(2-((1-methyl-1H-pyrazol-3-yl)amino)imidazo[1,2-b]pyridazin-3-yl)-4-pyrimidinyl)acetamide], the IC50 on mTOR is 140 nM; in test [1], 150 nM.
